Reference: US10660335B2, “Plant disease control agent” (SDS BIOTECH K.K., priority 2011, dated 2020)

Tests used:
Type in all cases: cell-based
[1] = system: Pyricularia oryzae; conditions: Concentration 10 ppm; colony diameter vs control, 25° C., second day to seventh day
[2] = system: Rhizoctonia solani; test: In vitro antimicrobial activity, mycelial growth on potato dextrose agar medium; conditions: Concentration 10 ppm
[3] = system: Botrytis cinerea; test: as above; conditions: Concentration 10 ppm

For “iso-C16 bacillomycin D [Comparative compound]”, the “Growth inhibition ratio (%) Pyricularia oryzae” value [1] was 35%, the “Growth inhibition ratio (%) Rhizoctonia solani” value [2] was 9% and the “Growth inhibition ratio (%) Botrytis cinerea” value [3] was 39%.
